Measured values as given in US20100029546A1, “preparation method of galactosyl-has magnetic nanoparticles containing adriamycin” (priority 2004, published 2010).

Tests used:
[1] = Drug release in vitro, dynamic dialysis; assay type: physicochemical; details: for Releasing (%): physiological saline
Description: Drug releases in vitro. According to dynamic dialysis, taking physiological saline as medium, 4 ml of the solution would be taken at certain time, and the same volume of the medium would be added in. The absorbency was measured to get the solving efficiency according to the standard curve formula. At the same time, the drug releasing experiment of adriamycin standard substance was done in order to observe the control release of the dialysis bag.

HepG2 cell = assay: Transwell invasion in vitro; assay type: cell-based
Text: The tumor cell's mobility and the invasion are close to each other. The tumor cell has the ability of amoeba type's movement, and it was confirmed by many people. Simultaneously, many overseas scholars reported that there is a direct ratio relation between the mobility and the invasion ability of the cancer cell. […] There is significant difference between any two groups. […] HSA-magnetic-adriamycin-nanoparticles group is different from galactosyl-HSA-adriamycin-nanoparticles group in it.

liver cancer = assay: Animal test of liver cancer therapy, hepatic artery injection; assay type: in vivo
Text: The result could be found in animal test: the group having NS hepatic artery injection lived 12.7 days on average; the group having lib-adriamycin hepatic artery injection lived 18.7 days on average; HSA-NP hepatic artery injection lived 20.7 days on average; the group having Gal-HAS-NP treatment lived 39.4 days on average.
Meanwhile, the aspiration of magnetic nanoparicles produced a longer functional diameter, which caused embolism in tumor blood vessels and lack of blood and oxygen in tumor in order to improve the sensitivity and effect of chemotherapeutics. Without adding magnetic field, the distribution rate of ADM-GHMN in tumorous and normal livers was 2.74, which also had some anti-tumor effects.

[2] = rabbit
hepatocelular cell = assay: Apoptosis, quadrilateral zone in drug toxicity experiment; assay type: cell-based

Which results are given for `COc1cccc2c1C(=O)c1c(O)c3c(c(O)c1C2=O)C[C@@](O)(C(=O)CO)C[C@@H]3O[C@H]1C[C@H](N)[C@H](O)[C@H](C)O1` [adriamycin]?
Releasing (%) ([1]; 0.5 h): 78.21%; Releasing (%) ([1]; 1 h): 91.34%; Releasing (%) ([1]; 2 h): 100%; release / releasing efficiency ([1]; time not stated (Tab 6)): 91.34%; inhibition of invasive power (HepG2 cell): can inhibit invasive power of the HepG2 cell; average survival (liver cancer; hepatic artery injection): 18.7 days; tumor necrosis extent in pathological section (liver cancer; in vivo): no badly necrosis but most light or medium leveled necrosis; C l [2]: 0.4233 ± 0.3223 mg/m/(mg/l); T1/2β ([2]; elimination phase): 883.2164 ± 2198.4914 m; A ([2]; in vivo): 0.1362 ± 0.0185 mg · l − 1; AUC0→∞ ([2]; in vivo): 14.8163 ± 24.789 m · mg/l; B ([2]; in vivo): 0.0109 ± 0.0028 mg · l − 1; Gamma ([2]; in vivo): 0.5463 ± 0.1663 m − 1; T1/2α ([2]; in vivo): 13.8169 ± 3.5845 m; V c ([2]; in vivo): 18.6816 ± 2.3663 (mg)/(mg/l); α ([2]; in vivo): 0.0523 ± 0.0161 m − 1; characteristic quadrilateral zone present (hepatocelular cell): characteristic quadrilateral zone
